Test results as given in patent publication US11807627B2, “Morphic forms of complement factor D inhibitors” (priority 2018, dated 2023).

Tests used:
Format in all cases: physicochemical
[1] = Hygroscopicity / dynamic vapour sorption (DVS)
Experimental: (§1) Approximately, 10-20 mg of sample were placed into a mesh vapour sorption balance pan and loaded into a DVS Intrinsic dynamic vapour sorption balance by Surface Measurement Systems. The sample was subjected to a ramping profile from 40-90% relative humidity (RH) at 10% increments, maintaining the sample at each step until a stable weight had been achieved (dm/dt 0.004%, minimum step length 30 minutes, maximum step length 500 minutes) at 25° C. After completion of the sorption cycle, the sample was dried using the same procedure to 0% RH and then a second sorption cycle back to 40% RH. Two cycles were performed. The weight change during the sorption/desorption cycles were plotted, allowing for the hygroscopic nature of the sample to be determined. XRPD analysis was then carried out on any solid retained.
as §1, with “Approximately, 10” for “Approximately, 10-20”, “sample was” for “sample were”, “a DVS-1” for “a DVS Intrinsic”

[2] = Storage stability of Compound 3 forms (80° C., 40° C./75% RH, 25° C./60% RH, ambient); settings: 1 week
Experimental: No changes by XRPD or HPLC purity were observed when the material was stored at 40° C./75% RH, 80° C. or under ambient conditions.

[3] = Solubility in selected media (FaSSIF, FeSSIF, FaSSGF, pH 4 citrate, pH 6.8 phosphate)
Experimental: Solubility within selected media (FaSSIF, FeSSIF, FaSSGF, pH 4 citrate and pH 6.8 phosphate) was measured to be <0.01 mg/mL.
The pH 4 citrate buffer was prepared by dissolving sodium citrate (987 mg) and citric acid (1.28 g) in 100 mL H2O. The pH was adjusted to 4. The pH 6.8 phosphate buffer was prepared by dissolving dibasic sodium phosphate dihydrate (873 mg) and monobasic sodium phosphate monohydrate (708 mg) in 100 mL H2O. The pH was adjusted to 6.8. The FaSSIF media was prepared with sodium hydroxide (108 mg), sodium chloride (1.55 g) and monobasic sodium phosphate dihydrate (1.12 g) in H2O (0.25 L) and the pH adjusted to 6.5. FaSSIF/FeSSIF/FaSSGF (0.56 g) was dissolved in the buffer and mixed until opalescent. The FeSSIF media was prepared by dissolving sodium hydroxide (1.01 g), sodium chloride (2.96 g) and glacial acetic acid (2.97 g) in H2O (0.25 L) and the pH adjusted to pH 5. FaSSIF/FeSSIF/FaSSGF (2.81 g) was dissolved in the buffer and thoroughly mixed. The FaSSGF media was prepared by dissolving FaSSIF/FeSSIF/FaSSGF (0.06 g) in a solution of sodium chloride (2.00 g) dissolved in H2O (1 L) and mixing thoroughly.

[4] = Drying of isolated samples at 50° C. for approximately 24 hours
Experimental: Samples produced from thermal cycling, cooling and evaporation experiments were dried at 50° C. for approximately 24 hours to assess any de-solvation/dehydration. From temperature cycling experiments, 3 samples converted upon drying: • Acetonitrile sample converted from Form J to amorphous; • 40% Ethanol/60% Water (% v/v) converted from Form N to Form P; and • Methanol sample converted from Form O to amorphous.

[5] = Thermogravimetric/differential thermal analysis (TG/DTA)
Experimental: Approximately, 5 mg of material was weighed into an open aluminium pan and loaded into a simultaneous thermogravimetric/differential thermal analyzer (TG/DTA) and held at room temperature. The sample was then heated at a rate of 10° C./min from 20° C. to 400° C. during which time the change in sample weight occurred was recorded along with any differential thermal events (DTA). Nitrogen was used as the purge gas at a flow rate of 300 cm^3/min.

[6] = Differential scanning calorimetry (DSC)
Experimental: DSC was performed using a TA Instruments 2920 or Q2000 differential scanning calorimeter. Temperature calibration was performed using NIST-traceable indium metal. The sample was placed into an aluminum DSC pan, covered with a lid, and the weight was accurately recorded. A weighed aluminum pan configured as the sample pan was placed on the reference side of the cell. The method code on the thermogram is an abbreviation for the start and end temperature as well as the heating rate; e.g., -30-250-10 means “from −30° C. to 250° C., at 10° C./min”. The following table summarizes the abbreviations used in each image for pan configurations: […]

[7] = Variable temperature XRPD (VT-XRPD); settings: Table 27A
Experimental: VT-XRPD analysis was carried out on a Philips X'Pert Pro Multipurpose diffractometer equipped with a temperature chamber. The samples were scanned between 4 and 35.99°2θ using Cu K radiation (α1λ=1.54060 Å; α2=1.54443 Å; β=1.39225 Å; α1: α2 ratio=0.5) running in Bragg-Brentano geometry (step size 0.008°2θ) using 40 kV/40 mA generator settings.

[8] = Polarized light microscopy (PLM); settings: Table 27A
Experimental: The presence of crystallinity (birefringence) was determined using an Olympus BX50 microscope, equipped with cross-polarizing lenses and a Motic camera. Images were captured using Motic Images Plus 2.0. All images were recorded using the 20×objective, unless otherwise stated. All samples were prepared using silicone oil and covered with a cover slip before PLM analysis was completed.

CC(=O)c1nn(CC(=O)N2[C@H](C(=O)Nc3nc(Br)ccc3C)C[C@@]3(C)C[C@@H]23)c2ccc(-c3cnc(C)nc3)cc12 [Form J]
DVS analysis: hygroscopic nature ([1]; 25° C.): hygroscopic
DVS: hygroscopicity ([1]; Table 27A): Hygroscopic first
XRPD post DVS ([1]; Table 27A): Form B
Post-DVS XRPD analysis ([1]; after DVS): pattern D
DVS uptake ([1]; first sorption cycle): 6.9 wt %
DVS uptake as equivalents of water ([1]; first sorption cycle): 2.5 equiv. water
DVS uptake ([1]; second sorption cycle): 5.2 wt %
DVS uptake as equivalents of water ([1]; second sorption cycle): 1.8 equiv. water
1 week stability: 40° C./75% RH HPLC (uncapped) [2]: 99.8% (by relative area)
1 week stability: 80° C. HPLC (capped) [2]: 99.9% (by relative area)
1 week stability: 80° C. XRPD (capped) [2]: Pattern D
1 week stability: Ambient conditions HPLC (capped) [2]: 99.9% (by relative area)
solubility ([3]; FaSSGF): <10 µg/mL
solubility ([3]; FaSSIF): <10 µg/mL
solubility ([3]; FeSSIF): <10 µg/mL
Form after drying (de-solvation/dehydration) [4]: amorphous
Onset Temp: Solvent loss ([5]; Table 22B): loss 129.3, ° C.
Onset Temp: melting transition ([5]; Table 22B): 200.0 °C
TG/DTA: Melting ([5]; Table 27A): melting 206.7 °C
TG/DTA: Solvent loss ([5]; Table 27A): Solvent loss 138.5° C.,
Mass loss within the TG trace ([5]; up to 150° C.): 2.2 wt %
Thermal events from SSCI report: Exothermic base line shifts ([6]; SSCI report): ~134° C., apparent
Thermal events from SSCI report: apparent melt onset ([6]; SSCI report): melt onset 83 °C
DSC: Melting ([6]; onset, Table 27A): melting 202.9 °C
DSC: Solvent loss ([6]; onset, Table 27A): Solvent loss 138.5 °C
DSC: Melting (peak) ([6]; peak, Table 27A): (peak 213.3° C.)
DSC: Solvent loss (peak) ([6]; peak, Table 27A): (peak 152.4° C.)
VT-XRPD: Form J de-solvated to Pattern G [7]: Pattern G (120° C.)
PLM [8]: Birefringent rods
